Calls of active or inactive are those of the source.

This note sets out measurements from ChEMBL document CHEMBL1201862, “PubChem BioAssay data set” (2004).

Experiment [1] can be described thus: Luminescence Cell-Based Dose Response HTS to Identify Activators of Luciferase Translation or Activity in H4 […] Cells. [Related pubchem assays: 1829 (Project Summary), 1814 (Primary HTS)]. The class given is functional.
For experiment [2], the target named is Intestinal-type alkaline phosphatase (Homo sapiens, UniProt P09923). Put plainly: Dose Response confirmation of uHTS hits from a small molecule inhibitors of human intestinal alkaline phosphatase via a luminescent assay. [Related pubchem assays (depositor defined):AID2544, AID2574]. Format: functional.
Sequence of Intestinal-type alkaline phosphatase (P09923 whole entry): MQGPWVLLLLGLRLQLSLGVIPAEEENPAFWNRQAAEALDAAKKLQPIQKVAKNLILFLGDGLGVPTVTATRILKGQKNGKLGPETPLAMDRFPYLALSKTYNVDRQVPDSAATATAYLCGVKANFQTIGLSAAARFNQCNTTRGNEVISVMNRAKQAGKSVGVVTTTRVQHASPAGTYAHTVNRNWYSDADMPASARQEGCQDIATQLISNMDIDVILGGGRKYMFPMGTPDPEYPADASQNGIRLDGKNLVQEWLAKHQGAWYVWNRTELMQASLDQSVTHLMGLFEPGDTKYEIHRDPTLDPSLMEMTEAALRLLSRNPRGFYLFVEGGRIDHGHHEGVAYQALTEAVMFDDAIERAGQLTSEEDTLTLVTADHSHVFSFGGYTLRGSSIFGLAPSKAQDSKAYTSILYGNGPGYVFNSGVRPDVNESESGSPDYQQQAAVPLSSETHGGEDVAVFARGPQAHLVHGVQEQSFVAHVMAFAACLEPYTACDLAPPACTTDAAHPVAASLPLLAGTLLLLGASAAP
Experiment [3] is described as follows: inhibitors of firefly luciferase expression or activity, dose response, H4 neuroglioma cells, luminescence (AID 1990). Format: functional, cell-based.
For experiment [4], the system named is Streptococcus sp. 'group A'. In words: growth inhibition of control SK(-) GAS strain, dose response, counter-screen for streptokinase expression inhibitor project, luminescence, kanamycin, BacTiterGlo, confirmation (AID 1900). Format: functional, organism-based. On the technique in general: Counterscreens check selectivity or assay interference.
The nature of experiment [5]: Luminescence Cell-Based Dose Response HTS to Identify Inhibitors of 5'UTR Stem-Loop Driven Prion Protein mRNA Translation in H4 Neuroglioblastoma Cells. [Related pubchem assays: 1827 (Project Summary), 1813 (Primary HTS)]. Format: functional.
Experiment [6] deals with T1, SUMO-activating enzyme (Homo sapiens, UniProt Q9UBT2). In words: SUMOylation inhibitor hit validation, confirmation, SUMOylation inhibitor project, biochemical, AlphaScreen (AID 2018). The class given is functional.
T1 sequence (Q9UBE0 whole entry): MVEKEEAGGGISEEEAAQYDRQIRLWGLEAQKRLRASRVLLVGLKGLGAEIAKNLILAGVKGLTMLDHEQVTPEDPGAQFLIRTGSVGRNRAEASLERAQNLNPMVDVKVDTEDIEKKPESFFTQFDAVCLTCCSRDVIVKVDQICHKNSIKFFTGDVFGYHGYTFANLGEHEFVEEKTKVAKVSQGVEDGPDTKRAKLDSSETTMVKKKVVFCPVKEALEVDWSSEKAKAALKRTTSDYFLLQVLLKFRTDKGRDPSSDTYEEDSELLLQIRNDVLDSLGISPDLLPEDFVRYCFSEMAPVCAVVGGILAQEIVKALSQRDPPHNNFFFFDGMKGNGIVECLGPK
T1 sequence (Q9UBT2 whole entry): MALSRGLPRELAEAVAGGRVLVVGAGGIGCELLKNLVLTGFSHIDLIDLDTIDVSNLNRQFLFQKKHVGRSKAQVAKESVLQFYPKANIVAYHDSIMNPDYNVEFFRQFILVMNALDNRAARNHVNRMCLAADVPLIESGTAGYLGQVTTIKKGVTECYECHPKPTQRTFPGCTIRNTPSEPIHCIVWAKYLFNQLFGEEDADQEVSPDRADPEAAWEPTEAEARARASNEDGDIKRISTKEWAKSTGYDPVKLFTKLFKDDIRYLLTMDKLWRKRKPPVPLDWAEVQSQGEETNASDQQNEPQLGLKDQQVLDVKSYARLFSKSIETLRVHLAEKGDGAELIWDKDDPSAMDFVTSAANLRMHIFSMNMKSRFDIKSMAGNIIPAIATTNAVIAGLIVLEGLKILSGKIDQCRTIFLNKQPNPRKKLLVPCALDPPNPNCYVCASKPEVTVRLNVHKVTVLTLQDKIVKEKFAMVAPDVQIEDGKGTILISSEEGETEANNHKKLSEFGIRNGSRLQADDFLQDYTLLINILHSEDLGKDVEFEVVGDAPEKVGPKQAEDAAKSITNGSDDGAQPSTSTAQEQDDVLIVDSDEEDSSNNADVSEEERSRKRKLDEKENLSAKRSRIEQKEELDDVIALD
Experiment [7] can be described thus: inhibitors of SNCA 5'UTR-driven reporter translation, confirmation, H4 neuroglioma cells, luminescence (AID 1988). The class given is functional, cell-based.
For experiment [8], the target named is T1, SUMO-activating enzyme. In words: inhibitors of in vitro SUMOylation cascade, primary screen, biochemical, HTRF, uHTS (AID 2006). The class given is protein-complex assay. A general note: TR-FRET usually uses a lanthanide donor and a delayed reading to cut background.
Experiment [9] relates to Streptococcus. In words: Group A Streptococcus viability loss, dose response, counter-screen for streptokinase expression inhibitor project, luminescence, BacTiterGlo (AID 1915).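 Also: potency for reduction of bacterial viability or growth.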 The class given is functional, organism-based.
Experiment [10] in a line: inhibitors of HIV Env-driven cell fusion, dose response, cherry-pick (AID 652057). Format: functional, cell-based.
Experiment [11] is described as follows: ZM109 Env clade C HIV-1 fusion inhibitors, dose response, HeLa effector, CEM target cells, luciferase, cherry-pick (AID 652058). Format: functional, cell-based.
A short description of experiment [12]: off-target signal loss in HeLa-CEM21 co-culture – HeLa F-luc CTL cells, cherry-picked, counter-screen for HIV-1 Env fusion inhibitor project, dose response (AID 652040).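 Also: potency for signal decrease marking cytotoxic or nonspecific inhibition.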 The class given is functional, cell-based.
Experiment [13] can be described thus: inhibitors of clade B AD8 Env fusion, dose response, cell-based, cherry-pick (AID 652062).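 Also: luciferase signal from cell-cell fusion driven by HIV-1 clade B AD8 Env; potency is for inhibitors of fusion seen as a drop in luminescence.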 The class given is functional.
The target of experiment [14] is G-protein coupled receptor 55 (Homo sapiens, UniProt Q9Y2T6). Put plainly: GPR55 antagonists blocking LPI-driven arrestin recruitment, primary screen, imaging, U2OS, beta-arrestin-GFP, LPI agonist (AID 2013).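 Also: antagonist potency measured as reduced agonist-driven arrestin aggregation.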 The class given is functional. On the technique in general: Recruitment of arrestin is a read-out of receptor activation apart from second messengers.
Sequence of G-protein coupled receptor 55 (Q9Y2T6 whole entry): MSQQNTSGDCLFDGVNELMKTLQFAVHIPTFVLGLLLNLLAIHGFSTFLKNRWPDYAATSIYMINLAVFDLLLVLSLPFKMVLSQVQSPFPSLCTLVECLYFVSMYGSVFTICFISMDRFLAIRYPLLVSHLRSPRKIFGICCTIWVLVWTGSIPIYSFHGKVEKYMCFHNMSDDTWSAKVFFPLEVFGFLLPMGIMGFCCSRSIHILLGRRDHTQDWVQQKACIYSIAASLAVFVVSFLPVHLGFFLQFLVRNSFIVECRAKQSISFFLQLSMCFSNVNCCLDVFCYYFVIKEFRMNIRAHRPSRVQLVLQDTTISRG
Experiment [15] is described as follows: inhibitors of intracellular T. cruzi replication, confirmation, NIH3T3 host cells, beta-gal luminescence (AID 2044).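 Also: intracellular parasites grown in NIH/3T3 mouse fibroblasts as host cells; luminescent beta-galactosidase reporter signal from transgenic T. cruzi replicating inside host cells; inhibitors lower the luminescence signal.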 The class given is functional, cell-based.
Experiment [16] in a line: cytotoxicity toward NIH3T3 fibroblasts, dose response, counter-screen, cell-based, ATP luminescence, mouse fibroblasts (AID 2010).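 Also: cells exposed to compound for about 90 hours before reading.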 The class given is functional.
Experiment [17] has as its system INS1. In words: beta cell apoptosis inhibitors, cytokine rescue, dose response, luminescence, retest (AID 449756).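 Also: cell death triggered by IL-1 beta plus TNF-alpha plus IFN-gamma mixture; protective hits raise ATP signal compared with cytokine alone wells.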 Format: functional, cell-based. To be noted: Rattus norvegicus, INS1.
For experiment [18], the target named is T2, Coagulation factor XII (Homo sapiens, UniProt P00748).
T2 sequence (P00748 whole entry): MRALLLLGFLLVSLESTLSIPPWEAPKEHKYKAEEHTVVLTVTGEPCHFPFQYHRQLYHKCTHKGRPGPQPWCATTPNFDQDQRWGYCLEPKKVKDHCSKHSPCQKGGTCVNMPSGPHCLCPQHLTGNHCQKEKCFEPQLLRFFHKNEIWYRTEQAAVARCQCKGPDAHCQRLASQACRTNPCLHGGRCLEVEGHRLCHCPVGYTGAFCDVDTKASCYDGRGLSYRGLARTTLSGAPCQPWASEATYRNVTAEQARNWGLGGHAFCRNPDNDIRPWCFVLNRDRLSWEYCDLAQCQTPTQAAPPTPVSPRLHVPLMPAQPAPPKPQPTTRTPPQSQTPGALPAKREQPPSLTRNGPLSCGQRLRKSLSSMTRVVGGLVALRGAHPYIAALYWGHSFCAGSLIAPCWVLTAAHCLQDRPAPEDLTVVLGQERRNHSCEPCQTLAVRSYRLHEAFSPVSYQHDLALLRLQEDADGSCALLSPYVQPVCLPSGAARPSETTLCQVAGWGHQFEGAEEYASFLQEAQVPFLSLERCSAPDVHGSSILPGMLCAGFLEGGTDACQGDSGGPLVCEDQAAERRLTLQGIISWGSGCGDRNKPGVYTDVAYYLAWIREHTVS
Put plainly: FXIIa inhibitor potency, concentration-response, biochemical (AID 716). Format: functional.

The target in experiment [19] is T3, Hexokinase HKDC1 (Homo sapiens, UniProt Q2TB90).
T3 sequence (Q2TB90 whole entry): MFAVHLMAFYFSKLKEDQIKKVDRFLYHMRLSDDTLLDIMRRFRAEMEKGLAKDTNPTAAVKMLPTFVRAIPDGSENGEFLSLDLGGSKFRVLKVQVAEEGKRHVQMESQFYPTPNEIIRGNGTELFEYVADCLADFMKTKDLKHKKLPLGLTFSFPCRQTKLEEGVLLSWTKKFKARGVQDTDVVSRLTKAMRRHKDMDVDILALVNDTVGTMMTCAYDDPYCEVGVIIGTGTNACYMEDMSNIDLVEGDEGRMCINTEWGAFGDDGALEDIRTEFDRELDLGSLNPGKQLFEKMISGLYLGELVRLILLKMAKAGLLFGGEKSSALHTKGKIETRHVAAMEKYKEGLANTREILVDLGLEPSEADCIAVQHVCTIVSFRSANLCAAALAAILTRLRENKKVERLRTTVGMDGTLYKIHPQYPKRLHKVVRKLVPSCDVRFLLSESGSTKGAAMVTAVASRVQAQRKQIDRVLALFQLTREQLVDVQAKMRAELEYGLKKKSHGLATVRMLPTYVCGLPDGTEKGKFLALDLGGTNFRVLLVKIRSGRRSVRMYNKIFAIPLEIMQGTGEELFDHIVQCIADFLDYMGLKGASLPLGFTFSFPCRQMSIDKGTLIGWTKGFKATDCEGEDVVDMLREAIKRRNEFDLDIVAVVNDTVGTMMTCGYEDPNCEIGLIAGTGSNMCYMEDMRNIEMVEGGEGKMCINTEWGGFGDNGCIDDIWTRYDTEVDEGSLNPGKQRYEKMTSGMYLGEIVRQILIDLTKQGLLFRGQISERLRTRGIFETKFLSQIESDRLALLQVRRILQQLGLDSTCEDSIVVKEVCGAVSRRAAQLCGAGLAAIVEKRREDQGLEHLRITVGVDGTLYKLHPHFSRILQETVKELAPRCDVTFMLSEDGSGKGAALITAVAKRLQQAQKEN
Put plainly: HKDC1 hexokinase inhibitors, dose response, biochemical, W721R variant (AID 504729). Format: functional.

Experiment [20] concerns the target Luciferin 4-monooxygenase (Photinus pyralis, UniProt P08659). Put plainly: firefly luciferase enzyme inhibitors, dose response, biochemical, luminescence (AID 1891).
Experiment [21] is described as follows: Luminescence Cell-Based Dose Confirmation HTS to Identify Inhibitors of Platelet Dense Granule Release. [Related pubchem assays: 1663 (Primary HTS), 1678 (Summary of Project)]. The class given is functional.
Experiment [22] addresses Voltage-dependent T-type calcium channel subunit alpha-1H (Homo sapiens, UniProt O95180). Format: functional.
Experiment [23] addresses Lysosomal acid glucosylceramidase (Homo sapiens, UniProt P04062). In words: Dose response cell-based high throughput screening assay to identify enhancers of beta-glucosidase activity. [Related pubchem assays: 784 ]. Format: functional.
The nature of experiment [24]: Luminescence Cell-Based Dose Retest to Confirm Inhibitors of Cancer Stem Cells. [Related pubchem assays (depositor defined):AID2717, AID2721]. Format: functional. The note with it: Homo sapiens.
Experiment [25] addresses T4, Kappa-type opioid receptor (Homo sapiens, UniProt P41145). Format: functional.
Experiment [26] concerns the target Beta-galactosidase (Escherichia coli, UniProt Q8VNN2). Format: functional.
In experiment [27] the target is T4, Kappa-type opioid receptor. Format: functional. The source holds these as a separate data set.
A short description of experiment [28]: THP-1 cell cytotoxicity, dose response, cytotoxicity control for non-replicating M. tuberculosis project (AID 489025). Format: functional.
A short description of experiment [29]: HepG2 cell cytotoxicity, dose response, cytotoxicity control for non-replicating M. tuberculosis project (AID 489018). The class given is functional. To be noted: Mycobacterium tuberculosis.
The nature of experiment [30]: cells. The class given is functional.

Sequence of Lysosomal acid glucosylceramidase (P04062 whole entry): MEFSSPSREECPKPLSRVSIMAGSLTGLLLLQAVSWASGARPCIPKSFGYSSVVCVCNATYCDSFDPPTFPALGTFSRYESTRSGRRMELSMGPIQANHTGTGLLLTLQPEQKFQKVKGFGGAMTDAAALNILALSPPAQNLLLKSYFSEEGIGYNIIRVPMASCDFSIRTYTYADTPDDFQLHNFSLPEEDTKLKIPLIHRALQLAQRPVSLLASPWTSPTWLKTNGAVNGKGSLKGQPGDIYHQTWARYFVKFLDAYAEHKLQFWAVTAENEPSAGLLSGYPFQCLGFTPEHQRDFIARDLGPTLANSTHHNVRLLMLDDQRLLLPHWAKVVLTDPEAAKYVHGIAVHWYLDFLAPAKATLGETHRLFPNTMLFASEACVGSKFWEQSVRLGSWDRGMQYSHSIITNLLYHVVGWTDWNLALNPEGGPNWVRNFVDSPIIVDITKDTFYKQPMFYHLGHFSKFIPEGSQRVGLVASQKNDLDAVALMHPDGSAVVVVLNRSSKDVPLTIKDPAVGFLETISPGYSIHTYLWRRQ
Sequence of Voltage-dependent T-type calcium channel subunit alpha-1H (O95180 whole entry): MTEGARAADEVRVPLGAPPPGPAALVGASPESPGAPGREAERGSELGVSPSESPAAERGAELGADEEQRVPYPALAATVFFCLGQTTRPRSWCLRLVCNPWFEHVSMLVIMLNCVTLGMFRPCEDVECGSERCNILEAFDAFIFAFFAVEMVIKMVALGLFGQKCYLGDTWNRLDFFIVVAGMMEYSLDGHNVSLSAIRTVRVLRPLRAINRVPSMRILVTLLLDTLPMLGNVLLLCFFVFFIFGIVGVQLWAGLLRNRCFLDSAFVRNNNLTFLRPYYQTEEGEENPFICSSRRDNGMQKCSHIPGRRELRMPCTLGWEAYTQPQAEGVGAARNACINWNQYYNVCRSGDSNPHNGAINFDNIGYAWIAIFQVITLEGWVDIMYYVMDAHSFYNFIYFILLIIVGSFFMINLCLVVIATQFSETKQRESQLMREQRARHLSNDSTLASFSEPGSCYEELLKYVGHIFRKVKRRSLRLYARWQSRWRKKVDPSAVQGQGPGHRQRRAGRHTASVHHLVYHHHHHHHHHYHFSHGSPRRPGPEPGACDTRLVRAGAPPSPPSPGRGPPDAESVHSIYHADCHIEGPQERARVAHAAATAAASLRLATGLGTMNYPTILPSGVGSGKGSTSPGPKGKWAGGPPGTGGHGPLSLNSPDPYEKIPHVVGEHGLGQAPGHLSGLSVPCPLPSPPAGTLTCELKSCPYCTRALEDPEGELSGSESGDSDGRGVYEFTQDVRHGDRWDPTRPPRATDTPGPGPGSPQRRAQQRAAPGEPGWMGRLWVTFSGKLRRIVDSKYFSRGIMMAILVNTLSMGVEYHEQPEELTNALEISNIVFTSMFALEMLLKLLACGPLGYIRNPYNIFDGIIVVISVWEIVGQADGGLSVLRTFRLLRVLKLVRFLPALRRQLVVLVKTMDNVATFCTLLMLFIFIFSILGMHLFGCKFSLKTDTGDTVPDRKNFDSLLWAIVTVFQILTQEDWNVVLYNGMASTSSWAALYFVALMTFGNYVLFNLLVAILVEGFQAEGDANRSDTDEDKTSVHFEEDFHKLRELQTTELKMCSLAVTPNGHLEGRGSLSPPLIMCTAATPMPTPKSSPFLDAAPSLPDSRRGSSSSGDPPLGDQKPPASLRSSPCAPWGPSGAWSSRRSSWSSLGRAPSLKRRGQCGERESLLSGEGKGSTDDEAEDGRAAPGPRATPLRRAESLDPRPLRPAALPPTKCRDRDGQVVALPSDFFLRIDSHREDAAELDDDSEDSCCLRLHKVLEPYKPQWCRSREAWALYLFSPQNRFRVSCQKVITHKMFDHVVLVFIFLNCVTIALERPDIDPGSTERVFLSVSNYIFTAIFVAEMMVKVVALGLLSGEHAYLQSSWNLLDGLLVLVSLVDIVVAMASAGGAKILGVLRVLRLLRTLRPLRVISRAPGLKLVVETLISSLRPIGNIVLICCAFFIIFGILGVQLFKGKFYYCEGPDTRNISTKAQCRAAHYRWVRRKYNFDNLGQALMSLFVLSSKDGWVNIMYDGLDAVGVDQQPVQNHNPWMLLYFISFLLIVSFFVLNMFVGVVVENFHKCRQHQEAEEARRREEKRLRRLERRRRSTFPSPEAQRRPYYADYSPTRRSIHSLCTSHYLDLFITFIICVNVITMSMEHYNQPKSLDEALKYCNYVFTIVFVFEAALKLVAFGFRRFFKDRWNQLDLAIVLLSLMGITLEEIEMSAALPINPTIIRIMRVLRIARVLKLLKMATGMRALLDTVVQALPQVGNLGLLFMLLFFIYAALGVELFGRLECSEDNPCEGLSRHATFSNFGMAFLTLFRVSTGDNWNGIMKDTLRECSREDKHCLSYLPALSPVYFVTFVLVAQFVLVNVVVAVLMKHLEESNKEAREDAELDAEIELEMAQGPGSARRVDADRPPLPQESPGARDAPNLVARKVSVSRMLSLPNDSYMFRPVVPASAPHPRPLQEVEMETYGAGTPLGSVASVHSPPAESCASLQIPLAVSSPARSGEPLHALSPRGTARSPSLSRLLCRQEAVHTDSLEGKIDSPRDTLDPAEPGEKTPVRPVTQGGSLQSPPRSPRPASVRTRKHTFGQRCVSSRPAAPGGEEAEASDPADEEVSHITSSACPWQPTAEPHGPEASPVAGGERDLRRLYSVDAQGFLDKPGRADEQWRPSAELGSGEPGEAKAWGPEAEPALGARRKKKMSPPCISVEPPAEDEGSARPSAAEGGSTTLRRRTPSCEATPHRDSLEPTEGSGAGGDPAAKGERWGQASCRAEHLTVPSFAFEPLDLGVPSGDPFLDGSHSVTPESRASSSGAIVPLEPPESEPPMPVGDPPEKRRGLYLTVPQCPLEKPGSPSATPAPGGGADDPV

In general, EC50 refers to the midpoint of the concentration-response curve. In general, IC50 refers to the concentration at which inhibition is half-maximal. Regarding `CCOC(=O)c1cnc(SCC(=O)c2ccccc2)nc1N`, the concentration giving a half-maximal response (EC50) in [1] was 0.195 µM (active). The IC50 in experiment [2] is > 100 µM (inactive).
The AC50 is the midpoint of the concentration-response curve, whichever way the signal moves. Regarding `CCCCCCCn1c(NC(=O)CC)nc2ccccc21`, the concentration for a half-maximal effect (EC50) in [3] is 11.4 µM (active); in experiment [4] it was 2.13 µM (active); in experiment [5], 13.8 µM (active); in experiment [7], 9.8 µM (active); in [9], 10.1 µM (active). Also, the values for the IC50 in experiment [6] and in [8] were 1.62 µM (active) and 7.82 µM (active), respectively. In addition, the AC50 in experiment [10] is 34.3 µM (active); in experiment [11], 47.3 µM (active); in experiment [12], > 70 µM (inactive); in experiment [13], 39.4 µM (active).
In the case of `COc1ccc(CNCCC(c2ccccc2)c2ccc3c(c2)OCO3)cc1` (configuration not stated), the IC50 in experiment [14] is 0.965 µM (active). Besides, the concentration for a half-maximal effect (EC50) was 3.27 µM (active) in [15] and > 60 µM (not active) in [16]. In experiment [17], the AC50 was 9.28 µM (active).
As to `Cc1noc(C)c1C(=O)NC(C)c1ccc2c(c1)OCO2` (configuration not stated), in experiment [18], the IC50 is > 50 µM (inactive).
As to `O=C(O)c1ccc2ncsc2c1`, the IC50 in experiment [19] was 7.69 µM (active).
On to `COC(=O)c1ccc(C(=O)OC)c(NC(=O)Nc2ccc3c(c2)OCO3)c1`, for which the EC50 in experiment [20] and in experiment [21] was > 112 µM (not active) in each case. In [2], the IC50 is > 100 µM (inactive).
Take `c1ccc(OCCSc2nc3ccccc3[nH]2)cc1`: the EC50 in experiment [22] is 5.96 µM (active).
Same read-out and setting: the figure for `Cc1ccc(NC(=O)c2cc(S(=O)(=O)N3CCCCC3)cs2)cc1` is 10.3 µM (active).
For `O=C(CN1C(=O)C2C3C=CC(C3)C2C1=O)NCCC1=CCCCC1` (configuration not stated), in [18], the IC50 is > 50 µM (inactive).
For the molecule `COC(=O)C1=CN(C(C)C)C=C(C(=O)OC)C1c1cc2c(cc1Br)OCO2`, in experiment [14], the IC50 was 4.97 µM (active).
Turning to `N#CCc1ccc(NC(=O)Nc2cccc(Cl)c2)cc1`, the EC50 in experiment [23] is > 10 µM (not active). In addition, the concentration at half-maximal activity (AC50) in [24] is 5.19 µM (active).
On to `Cc1ccn2cc(C(=O)Nc3ccccc3N3CCOCC3)nc2c1`, for which the 50% effective concentration (EC50) in experiment [23] is reported as > 50 µM (not active).
For the molecule `Fc1ccccc1/C=N/Nc1nc(-c2ccccn2)nc2ccccc12`, the EC50 in [5] is 1.03 µM (active); in experiment [7], 0.456 µM (active); in experiment [15], 0.357 µM (active); in experiment [16], 54.9 µM (active); in experiment [26] it was > 31.5 µM (inactive). In addition, the results for the concentration for half-maximal inhibition (IC50) in experiment [25] and in experiment [27] were 6.19 µM (active) and greater than 32 µM, respectively. The half-maximal activity concentration (AC50) in experiment [17] is 0.984 µM (active).
As usually defined, the CC50 is the concentration giving 50% cytotoxicity. As to `Clc1c(OCCCn2ccnc2)ccc2ccccc12`, the values for the concentration giving a half-maximal response (EC50) in [15] and in experiment [16] were 0.708 µM (active) and > 60 µM (not active), respectively. In addition, the results for the CC50 in experiment [28] and in experiment [29] were 37.1 µM (active) and > 20 µM (active), respectively. Moreover, in experiment [30], the half-maximal inhibitory concentration (IC50) is 9.76 µM (active).
